From article PMC8895377, “In Vivo Targeting Replication Protein A for Cancer Therapy” (Frontiers in Oncology, 2022)

Tests used:
H460 cells [1] = experiment: Chou-Talalay combination studies with RPAi 329; format: cell-based, human; conditions: H460, combination with RPAi 329
Experimental: To assess synergy, the combination index (CI) was determined as described by Chou-Talalay as we have previously described ([8]). Briefly, H460 cells were treated with RPAi and the indicated agent alone and in combination. […] The data from both the single-agent treatments and the combination treatment were used to calculate the CI and plot this value as a function of the fraction of cells affected (Fa). A CI of >1 indicates antagonism between the two agents, while a CI <1 indicates synergy.
(A) Chou-Talalay analysis of combination with chemotherapeutics. […] (B) Chou-Talalay analysis of combination with DDR-targeted agents as described in panel (A).

H460 cells [2] = experiment: DNA fiber analysis of replication fork dynamics; format: cell-based, human
Experimental: Analysis of DNA replication intermediates was performed as previously described with minor modifications ([11], [12]). H460 cells were seeded in 6-well plates at a density of 2 × 10^5 cells. […] After harvesting, the cells were resuspended in PBS at a concentration of 1,000,000 cells/ml, and 2 µl of the cell suspension was mixed with 8 µl of lysis buffer (200 mM Tris-HCl pH 7.5, 50 mM EDTA, 0.5% SDS) on a Superfrost Plus microscope slide (Fisher Scientific). After 6 min of incubation, the slides were tilted at a 45-degree angle to allow cell lysates to slowly run down the slide. After air-drying, the slides were fixed in methanol:acetic acid (3:1) and stored at 4°C. DNA fibers were denatured with 2.5N HCl for 1 h, washed with PBS, and blocked with 5% BSA in PBS-T (PBS + 0.1% Tween-20) for 1 h. […] Excess antibodies were removed by washing with PBS-T 3 times. After air-drying, the slides were mounted onto a coverslip with mounting medium. Fiber tracts were imaged with a Nikon epifluorescence microscope using a 40× oil immersion objective, and 100 fibers for each group were analyzed in ImageJ where the ratios of CldU : IdU were compared using pixel length. Data were analyzed by ANOVA with Bonferroni test for multiple comparisons.
(A) Schematic depiction of experimental design. DNA was pulse-labeled with IdU for 20 min. After IdU removal, replication forks were stalled by the addition of HU or left to replicate with vehicle treatment. HU was removed, and replication was labeled with CldU. Following CldU, cells were treated with the DDRi or vehicle. […] Data presented are combined from three individual experiments (100 fibers analyzed per experiment; 300 fibers total). Red bar indicates the median value of CldU/IdU.

[3] = test system: lung cancer xenograft models; conditions: cited from earlier work
[4] = cited from earlier work
H460 cells [5] = experiment: Caspase 3/7 apoptosis assay; format: cell-based, human; conditions: H460, 24 h
Experimental: Apoptosis induction was determined by activation of Caspases 3 and 7 using the CellEvent™ Caspase-3/7 Green Detection Reagent (Invitrogen). H460 cells were plated at 5 × 10^3 cells/well in black 96-well plates with clear bottoms (Costar) and incubated for 24 h prior to treatments. Cells were treated with the indicated concentration of RPAi or cisplatin for 24 h. The vehicle (DMSO) concentration was held constant at 1% for RPAi treatments. For caspase 3/7 detection, medium was removed and replaced with phosphate buffered saline (PBS) containing 5% fetal bovine serum (FBS) and 2 µM CellEvent™ Caspase-3/7 Green Detection Reagent. Cells were incubated at 37°C/5% CO2 for 1 h, and fluorescence intensity was measured in a BioTek Synergy H1 plate reader (excitation/emission 485/528). Images were captured with an Evos FL2 Auto microscope (Invitrogen) using a 10× objective.
Figure 3 The 329 induction of apoptotic cell death. (A) Analysis of caspase 3/7 activity in H460 cells following 24 h of treatment with 1% DMSO or the indicated concentrations of 329. Fluorescence images were captured as described in the Materials and Methods. (B) Quantification of caspase 3/7 activity. Fluorescence was measured in 96-well plates using a Biotek Synergy H1 plate reader following 24-h incubation with the indicated drugs and concentrations.

[6] = design: method as in PMID 32550990; conditions: cited from earlier work
[7] = test system: A549 adenocarcinoma and H460 large cell carcinoma; design: method as in doi:10.1101/2020.11.30.404640; conditions: both models, differing dosing regimens, DMSO/Tween; cited from earlier work
[8] = molecular target: Escherichia coli single strand binding protein (SSB) (Escherichia coli, UniProt P0AGE0); experiment: EMSA internal specificity control, SSB–ssDNA complex; conditions: internal specificity control in EMSA
Experimental: (§1) EMSAs were performed as previously described ([9]). Briefly, reactions were conducted in 20 mM HEPES (pH 7.8), 1 mM DTT, 0.001% NP-40, and 50 mM NaCl. RPAis were suspended in 100% dimethlysulfoxide (DMSO), and DMSO concentration in the final reaction mixture was constant at less than 5%. Purified full-length RPA (120 ng) was incubated with the indicated RPAi or vehicle in reaction buffer for 30 min before the addition of the [^32]P-labeled 34-base ssDNA probe. Reactions were incubated for 5 min at room temperature, and products were separated via 6% native polyacrylamide gel electrophoresis. The bound and unbound fractions were quantified by phosphor-imager analysis using ImageQuant software (Molecular Dynamics, CA), and data were fit by non-linear regression using GraphPad Prism.
(§2) Figure 2 Replication protein A inhibitor (RPAi) inhibitory activity. (A) Chemical structure of RPAi’s 329 and 2004. (B) EMSA analysis of RPA–DNA interaction inhibition by 329 and 2004. Lanes 3–6 in each panel contain 6.25, 12.5, 25, and 50 µM of the indicated RPAi, respectively. The * indicates the position of the Escherichia coli SSB–single-stranded DNA (ssDNA) complex that serves as an internal specificity control. (C) Cell viability of H460 NSCLC cells in response to 329 and 2004.

[9] = molecular target: T1, RPA–DNA interaction (purified full-length RPA) (Homo sapiens, UniProt P27694); experiment: EMSA of RPA–DNA interaction inhibition; format: binding; conditions: 6.25, 12.5, 25, 50 µM RPAi
T1 construct: Purified full-length RPA (120 ng) was incubated with the indicated RPAi
Experimental: as §1, §2

H460 NSCLC cells = experiment: CCK-8 viability assay; format: cell-based, human; conditions: H460, 48 h, compared to 551 predecessor
Experimental: Cell lines were obtained from ATCC and maintained as monolayer cultures in RPMI 1640 medium (H460) or Dulbecco’s Modified Eagle's Medium (DMEM) (A549) supplemented with 10% fetal bovine serum. H460 and A549 cells were plated at 2.5 × 10^3 cells/well and A2780 and GCT27 cells plated at 5 × 10^3 cells/well in a 96-well plate and incubated for 18–24 h prior to treatments. Cells were treated with the indicated concentration of RPAi for 48 h. The vehicle (DMSO) concentration was held constant at 1%. Cell metabolism/viability was assessed by a mitochondrial metabolism assay (CCK-8) as we have described previously ([10]). The generation of the water-soluble formazan product by cellular dehydrogenases is proportional to the number of living cells. Following incubation with CCK-8 reagent, absorbance was measured at 450 nm with a BioTek Synergy H1 plate reader. Values were compared to those of vehicle-treated controls to determine percent viability, and the results represent the average and SEM of triplicate determinations.

Chain of Escherichia coli single strand binding protein (SSB) (P0AGE0 2-178): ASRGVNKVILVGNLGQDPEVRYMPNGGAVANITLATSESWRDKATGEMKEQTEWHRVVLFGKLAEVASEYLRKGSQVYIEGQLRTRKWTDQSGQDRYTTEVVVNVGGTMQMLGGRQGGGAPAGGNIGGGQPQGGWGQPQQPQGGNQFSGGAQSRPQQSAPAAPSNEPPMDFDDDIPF
T1 sequence (P27694 whole entry): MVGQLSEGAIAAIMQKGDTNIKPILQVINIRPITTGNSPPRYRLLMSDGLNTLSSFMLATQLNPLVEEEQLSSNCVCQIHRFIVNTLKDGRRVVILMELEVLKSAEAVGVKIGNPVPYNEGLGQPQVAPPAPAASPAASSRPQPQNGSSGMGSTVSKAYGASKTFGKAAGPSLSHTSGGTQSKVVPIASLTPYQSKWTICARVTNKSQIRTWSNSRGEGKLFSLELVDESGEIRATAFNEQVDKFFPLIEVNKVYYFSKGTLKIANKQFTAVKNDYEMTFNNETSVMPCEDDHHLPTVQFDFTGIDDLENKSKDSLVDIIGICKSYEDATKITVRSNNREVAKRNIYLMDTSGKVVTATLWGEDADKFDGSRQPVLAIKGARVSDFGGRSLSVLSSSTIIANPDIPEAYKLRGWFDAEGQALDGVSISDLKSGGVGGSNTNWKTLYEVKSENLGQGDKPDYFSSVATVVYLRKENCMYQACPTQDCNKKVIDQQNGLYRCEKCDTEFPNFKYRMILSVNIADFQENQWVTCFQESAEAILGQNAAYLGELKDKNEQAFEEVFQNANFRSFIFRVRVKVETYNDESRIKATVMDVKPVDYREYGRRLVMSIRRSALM
T1 sequence (P15927 whole entry partner): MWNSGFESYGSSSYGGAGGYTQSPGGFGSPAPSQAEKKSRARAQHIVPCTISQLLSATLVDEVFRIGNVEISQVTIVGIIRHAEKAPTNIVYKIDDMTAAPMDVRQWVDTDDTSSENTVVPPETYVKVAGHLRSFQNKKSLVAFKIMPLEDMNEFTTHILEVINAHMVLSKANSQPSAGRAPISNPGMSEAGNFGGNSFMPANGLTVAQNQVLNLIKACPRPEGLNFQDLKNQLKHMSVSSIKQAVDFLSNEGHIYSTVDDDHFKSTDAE
T1 sequence (P35244 whole entry partner): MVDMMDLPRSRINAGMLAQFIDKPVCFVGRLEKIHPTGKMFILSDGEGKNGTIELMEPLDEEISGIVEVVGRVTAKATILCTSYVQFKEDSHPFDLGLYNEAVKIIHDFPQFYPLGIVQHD

Cn1ncnc1[C@H]1c2n[nH]c(=O)c3cc(F)cc(c23)N[C@@H]1c1ccc(F)cc1 [BMN637]
synergy with RPAi 329 (Chou-Talalay) (H460 cells [1]): modest synergy

CNCc1ccc(-c2cc(-c3nc(-c4ccc(S(=O)(=O)C(C)C)cc4)cnc3N)on2)cc1 [VE-822]
CldU/IdU signal after HU (H460 cells [2]; H460, HU 2.5 mM then 329 50 µM or VE-822 2 µM): significant decrease in CldU/IdU signal | CldU/IdU, inhibitor alone (H460 cells [2]; H460, without HU, 329 50 µM, VE-822 2 µM, 2 h): minimal effects

O=C1NC(=O)c2c1c(-c1ccccc1Cl)cc1[nH]c3ccc(O)cc3c21 [Wee1 inhibitor]
synergy with RPAi 329 (Chou-Talalay) (H460 cells [1]): antagonistic or additive

CCOc1ccc2cc(C3CC(c4ccc(I)cc4)=NN3C(=O)CCCC(=O)O)c(Cl)nc2c1 (centres unmarked) [compound 551]
tumor growth delay, combination with carboplatin ([3]; NSCLC xenograft models, reduced doses of carboplatin and 551, versus each agent alone): greater than additive effect on tumor growth delay | in vivo activity [3]: modest in vivo activity | caspase activation or annexin V/PI positivity [4]: not accompanied by caspase activation or annexin V/PI positivity | activation of caspases 3 and 7 (H460 cells [5]): inability to detect caspase activity

CCOc1ccc2cc(C3CC(c4ccc(Br)cc4)=NN3C(=O)CCCC(=O)NCCCN3CCOCC3)c(Cl)nc2c1 (centres unmarked) [compound 2004]
solubility, cellular uptake, and physicochemical properties [6]: excellent | single-agent anticancer activity in vivo [7]: only modest single-agent anticancer activity | interaction of E. coli SSB with ssDNA [8]: not impacted | RPA inhibitory activity (RPA–DNA interaction, EMSA) [9]: potent RPA inhibitory activity | single-agent cellular anticancer activity (CCK-8) (H460 NSCLC cells): potent single-agent activity

N=C1NC(=O)/C(=C/c2ccc(O)cc2)S1 [mirin]
reversal of the CldU/IdU decrease (H460 cells [2]; H460, HU then ATRi or RPAi): reversible
